# Laboratory results as given in patent US8828950B2, “Caspase inhibitors in the treatment of infection-associated preterm delivery” (Cedars-Sinai Medical Center, priority 2007, dated 2014).
# Entries after “also recorded” stand apart in the source; their conditions may differ. Residues, ends and D or L forms follow the SMILES beside them. *: point of attachment. Cbz = O=C(OCc1ccccc1)*; CH2F = FC*
# Key:
# [1] = tested on: primary human trophoblasts and fibroblasts; conditions: in vitro pretreatment; Equils et al., 2006; cited from earlier work
# [2] = tested on: pregnant CD1 mice injected with HK-GBS; test: HK-GBS-induced preterm delivery in day 14.5 pregnant CD1 mice; assay type: in vivo, mouse
# Method: To assess whether caspase inhibition prevented HK-GBS-induced preterm delivery, unanesthetized day 14.5 pregnant CD1 mice (Harlan Laboratories, Madison, Wis.), which breed more effectively than inbred C57BL/6J mice, were pre-treated intraperitoneally with PBS, DMSO or the pancaspase inhibitor Z-VAD-FMK (10 mg/kg) 30 minutes prior to intraperitoneal injection with either 10^9 HK-GBS bacteria or medium. There were no differences in delivery outcomes following intraperitoneal injection with GBS whether or not animals were pretreated with either PBS or DMSO (diluents for the caspase inhibitor). Therefore these separate control pre-treatments are combined for the analyses.
# Chi-square analysis was done to assess the effect of Z-VAD-FMK pretreatment on HK-GBS-induced preterm delivery.
# Based upon that observation, we hypothesized that the generalized inhibition of caspases would prevent microbial antigen-induced preterm delivery in the mouse pregnancy model. In order to test this hypothesis we pre-treated day 14.5 pregnant CD1 mice either with Z-VAD-FMK (10 mg/kg dissolved in DMSO/PBS) or with medium intraperitoneally 30 minutes prior to intraperitoneal HK-GBS injection.
# [3] = tested on: pregnant mice injected with LPS; test: LPS-induced pup mortality/abortion in pregnant Cox2/luciferase mice (bioluminescence imaging); assay type: in vivo, mouse; conditions: for pup (fetal) mortality / abortion after LPS: 0.25 mg ip 5-30 minutes prior to each ip LPS injection, 14 day pregnant mouse
# From the text: Therefore, the use of caspase inhibitors confers a protective effect not seen by merely controlling infection through the use of antibiotics. As one of skill in the art will realize that the murine model can provide a guide to expected outcomes in human pregnancy, it is believed that caspase inhibitor treatment will be effective in the treatment of pregnant women with intrauterine infection so as to prevent preterm delivery and improve pregnancy outcome. This is a novel mammalian model for the improvement of pregnancy outcome.
# Our experimental test method is based on the use of a mouse model in which inflammation (as assessed by Cox2 promoter activation) is detected optically by using a transgenic animal in which activation of the promoter results in synthesis of luciferase. When luciferin is subsequently injected, the presence of luciferase is detected by a sensitive camera as the production of light. The detected inflammation is indicative of the infection caused by the LPS injection.
# In FIG. 1, pregnant mice are imaged. The mice were first mated with Cox2/luciferase males so that the pups would be positive for the Cox2/luciferase construct. The mice were treated with LPS which is normally produced by bacteria and results in inflammation. We injected pregnant mice with 0.1 microgram/ml LPS intraperitoneally (ip) for the control mice 0-24 hours (using a 2, 4, 6, 12 hour time course) prior to the imaging. The resulting inflammation causes the upregulation of Cox2 promoter in the pups resulting in the synthesis of luciferase. […] The treatment mice were given 0.25 mg ip of the pancaspase inhibitor 5-30 minutes prior to each LPS injection.
# In the case of the control mouse (right-hand side of FIG. 1) inflammation results in the abortion of the pups (no bioluminescence detected). […] Thus, in the case of inflammation resulting from infection (as is common in cases of preterm delivery in humans) effective treatment includes antibiotic to reduce or eliminate the infection and caspase inhibitor to prevent preterm delivery.
compound,measurement,setting,value
"COC(=O)C[C@H](NC(=O)[C@H](C)NC(=O)[C@@H](NC(=O)OCc1ccccc1)C(C)C)C(=O)CF [Z-VAD-FMK, carbobenzoxy-valyl-alanyl-aspartyl-[O-methyl]-fluoromethylketone] (Cbz-Val-Ala-Asp(OMe)-CH2F)",cHSP60-induced apoptosis,[1],prevented Chlamydia heat shock protein (cHSP60)-induced apoptosis
same,Delivery <18 hr (%),"[2]; 10 mg/kg ip 30 minutes prior to ip 10^9 HK-GBS, 1 of n = 6, GBS alone 12 (86%) of n = 14, p value 0.0072",1 (17%)
same,Delivery 18-24 hrs (%),"[2]; 10 mg/kg ip 30 minutes prior to ip 10^9 HK-GBS, 2 of n = 6, GBS alone 0 of n = 14, p value 0.079",2 (33%)
same,Preterm Delivery (<24 hours),"[2]; 10 mg/kg ip 30 minutes prior to ip 10^9 HK-GBS, 3 of n = 6, GBS alone 12 (86%) of n = 14, p value 0.13",3 (50%)
same,effect on HK-GBS-induced preterm delivery,"[2]; ip pre-treatment 10 mg/kg, ip HK-GBS",delayed i.p. HK-GBS-induced preterm delivery; also recorded: significantly delayed preterm delivery at 18 hours
same,pup (fetal) mortality / abortion after LPS,[3],prevents pup mortality; also recorded: the pups do not abort
same,pup (fetal) mortality / abortion after LPS,[3]; listed as Z-VAD FMK,reduces fetal mortality
same,pup (fetal) mortality / abortion after LPS,[3]; listed as pancaspase inhibitor,maintenance of pregnancy
same,inflammation as assessed by Cox2 promoter activation (bioluminescence),[3]; 0.25 mg ip prior to ip LPS injection,continued inflammation; also recorded: does not prevent inflammation
